Measurements reported in US20130109698A1, “Small Molecule Inhibitors of Functions of the HIV-1 Matrix Protein” (priority 2010, published 2013).

Tests used:
[1] = tested on: luciferase-reporter HIV-1 NL4-3 pseudotyped with HxBc2 envelope produced in 293T cells; test: microbe, parasite or virus in culture
HIV-1 IIIB = test: Infection of Sup-T1 cells by HIV-1 IIIB, p24 ELISA; details: 50 μM, three days

Compound	IC50 [1] [µM]	HIV-1 replication (p24), in words (HIV-1 IIIB)
O=C(NCc1ccc(CN2CCCC2)cc1)c1ccc(C2SCCCS2)cc1 [CMPD-19, 4-(1,3-dithian-2-yl)-N-(4-(pyrrolidin-1-ylmethyl)benzyl)benzamide]	26	inhibited
O=C1NC(c2ccccc2)(c2ccccc2)C(=O)N1CN1CCC(c2nc3ccccc3o2)CC1 [CMPD-13, 3-((4-(benzo[d]oxazol-2-yl)piperidin-1-yl)methyl)-5,5-diphenylimidazolidine-2,4-dione]	–	no effect
COc1ccc(NC(C)=O)cc1NC(=O)Cn1cnc2scc(-c3ccc(C)s3)c2c1=O [CMPD-10, N-(5-acetamido-2-methoxyphenyl)-2-(5-(5-methylthiophen-2-yl)-4-oxothieno[2,3-d]pyrimidin-3(4H)-yl)acetamide]	31	inhibited HIV-1 replication, albeit to a lesser extent
